Patent US20150080292A1 (priority 2013, published 2015)
≈ marks a conversion by molar mass, not a printed value. Where a SMILES comes first, the peptide text is derived from it. Bridges are numbered along the chain shown (N, C = ends). The star is where a group is joined. Pentadecanoyl = CCCCCCCCCCCCCCC(=O)*; Tridecanoyl = CCCCCCCCCCCCC(=O)*; Myristoyl = CCCCCCCCCCCCCC(=O)*

Assays:
[1] = test system: Fusarium oxysporum; experiment: Anti-fungus plate experiment (growth diameter on LB medium with drug); assay type: cell-based; details: LB plates, 28° C.
Method: (§1) The anti-fungi experiment, with 6 treatments of different drug concentration and three replicates each treatment and sterile water as blank check, was conducted by mixing Locillomycin-A, Locillomycin-B and Locillomycin-C separately into different plates containing LB medium and, then, inoculating pathogenic fungi in the center of the plates, followed by incubation at 28° C. to check the effectiveness of antifungal function. The criteria of the effectiveness were defined as the size of orthogonal cross diameter of the pathogen growth.

[2] = test system: Rhizoctonia solani; experiment: as above; assay type: cell-based; details: LB plates, 28° C.
Method: as §1

[3] = solvents in which the compound dissolves
[4] = test system: Fusarium graminearum; details: LB plates, 28° C.

| Compound | IC50 [1] [µg/mL] | IC90 [1] [µg/mL] | IC50 [2] [µg/mL] | IC90 [2] [µg/mL] | Solubility [3] | IC50 [4] [µg/mL] | IC90 [4] [µg/mL] |
| --- | --- | --- | --- | --- | --- | --- | --- |
| CCCCCCCCCCCCC(=O)NC1C(=O)NC(CCC(N)=O)C(=O)NC(CC(=O)O)C(=O)NCC(=O)NC(CC(N)=O)C(=O)NC(CC(=O)O)C(=O)NCC(=O)NC(Cc2ccc(O)cc2)C(=O)NC(C(C)C)C(=O)OC1C (stereo not drawn) [Locillomycin-A] (Tridecanoyl-TQDGNDGYV; ester 1-C; configuration not given here) | 12.5 (≈ 10.9 µM) | 56.3 (≈ 49.1 µM) | 15.5 (≈ 13.5 µM) | 45.9 (≈ 40 µM) | Methanol, Dimethyl | 25.4 (≈ 22.2 µM) | >100 |
| CCCCCCCCCCCCCC(=O)NC1C(=O)NC(CCC(N)=O)C(=O)NC(CC(=O)O)C(=O)NCC(=O)NC(CC(N)=O)C(=O)NC(CC(=O)O)C(=O)NCC(=O)NC(Cc2ccc(O)cc2)C(=O)NC(C(C)C)C(=O)OC1C (stereo not drawn) [Locillomycin-B] (Myristoyl-TQDGNDGYV; ester 1-C; configuration not given here) | 11.6 (≈ 10 µM) | 48.9 (≈ 42.1 µM) | 13.8 (≈ 11.9 µM) | 40.6 (≈ 35 µM) | Methanol, Dimethyl | 22.6 (≈ 19.5 µM) | >100 |
| CCCCCCCCCCCCCCC(=O)NC1C(=O)NC(CCC(N)=O)C(=O)NC(CC(=O)O)C(=O)NCC(=O)NC(CC(N)=O)C(=O)NC(CC(=O)O)C(=O)NCC(=O)NC(Cc2ccc(O)cc2)C(=O)NC(C(C)C)C(=O)OC1C (stereo not drawn) [Locillomycin-C] (Pentadecanoyl-TQDGNDGYV; ester 1-C; configuration not given here) | 10.3 (≈ 8.77 µM) | 46.8 (≈ 39.9 µM) | 12.4 (≈ 10.6 µM) | 38.6 (≈ 32.9 µM) | Methanol, Dimethyl | 21.7 (≈ 18.5 µM) | >100 |
